From patent US9663473B2 (Actelion Pharmaceuticals Ltd, priority 2013, dated 2017)
pEC50: −log10 of the molar value.

Target: T1, recombinant human ALX receptor (Homo sapiens, UniProt P25090)
T1 construct: expressed in transfected cells; host or cells: HEK293 (HEK293-hALXR-Gα16)
T1 sequence (P25090 1-351): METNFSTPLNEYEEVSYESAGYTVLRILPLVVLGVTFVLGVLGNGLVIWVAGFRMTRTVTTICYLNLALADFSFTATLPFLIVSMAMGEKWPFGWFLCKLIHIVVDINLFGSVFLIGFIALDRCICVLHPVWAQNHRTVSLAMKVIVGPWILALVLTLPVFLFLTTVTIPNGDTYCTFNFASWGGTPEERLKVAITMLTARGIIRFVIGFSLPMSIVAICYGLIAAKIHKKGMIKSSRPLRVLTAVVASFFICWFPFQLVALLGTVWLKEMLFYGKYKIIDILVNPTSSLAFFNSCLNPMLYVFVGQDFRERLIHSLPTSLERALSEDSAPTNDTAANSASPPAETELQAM
Experiment: Intracellular calcium measurements (FLIPR), ALX receptor agonistic activity
Format: cell-based
Conditions: HEK293-hALXR-Gα16 cells, Fluo-4 calcium signal, normalized to WKYMVm 10 nM
In short: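 Agonist-induced calcium flux was read by FLIPR (488/540 nm) as baseline-subtracted peak emission, expressed relative to WKYMVm at 10 nM final. Cells used: HEK293-hALXR-Gα16, dye-loaded 60 min at 37° C. with 1 μM Fluo-4 AM before compound dose-response addition.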

Structure (SMILES)	pEC50
COc1ccc(C[C@@H](NC(=O)N[C@@H]2CCc3ccccc32)c2nc3ccccc3[nH]2)cc1 [Example 334, 1-((R)-1-(1H-Benzo[d]imidazol-2-yl)-2-(4-methoxyphenyl)ethyl)-3-((R)-2,3-dihydro-1H-inden-1-yl)urea]	6.95
CCC[C@@H](NC(=O)N[C@H](Cc1ccc(OC)cc1)c1nc2ccccc2[nH]1)c1ccccc1 [Example 335, 1-((R)-1-(1H-Benzo[d]imidazol-2-yl)-2-(4-methoxyphenyl)ethyl)-3-((R)-1-phenylbutyl)urea]	6.43
COc1ccc(C[C@@H](NC(=O)NC(C)c2cn3ccsc3n2)c2nc3ccccc3[nH]2)cc1 (stereo partly drawn) [Example 338, 1-((R)-1-(1H-Benzo[d]imidazol-2-yl)-2-(4-methoxyphenyl)ethyl)-3-(1-(imidazo[2,1-b]thiazol-6-yl)ethyl)urea]	7.44
COc1ccc(C[C@@H](NC(=O)N[C@H](C(N)=O)c2ccccc2)c2nc3ccccc3[nH]2)cc1 [Example 339, (S)-2-(3-((R)-1-(1H-Benzo[d]imidazol-2-yl)-2-(4-methoxyphenyl)ethyl)ureido)-2-phenylacetamide]	7.41
COc1ccc(C[C@@H](NC(=O)NC2(c3ccc(Br)cc3)CC2)c2nc3ccccc3[nH]2)cc1 [Example 340, (R)-1-(1-(1H-Benzo[d]imidazol-2-yl)-2-(4-methoxyphenyl)ethyl)-3-(1-(4-bromophenyl)cyclopropyl)urea]	6.57
COc1ccc(C[C@@H](NC(=O)NC2(c3ccc(F)cc3)CC2)c2nc3ccccc3[nH]2)cc1 [Example 341, (R)-1-(1-(1H-Benzo[d]imidazol-2-yl)-2-(4-methoxyphenyl)ethyl)-3-(1-(4-fluorophenyl)cyclopropyl)urea]	6.40

The next lines start with the values.

pEC50	Structure (SMILES)
6.82	COc1ccc(C[C@@H](NC(=O)N[C@@H](C)c2ccc(Cl)cc2)c2nc3ccccc3[nH]2)cc1 [Example 328, 1-((R)-1-(1H-Benzo[d]imidazol-2-yl)-2-(4-methoxyphenyl)ethyl)-3-((S)-1-(4-chlorophenyl)ethyl)urea]
6.55	COc1ccc(C[C@@H](NC(=O)N[C@H](C)c2ccc(Cl)cc2)c2nc3ccccc3[nH]2)cc1 [Example 329, 1-((R)-1-(1H-Benzo[d]imidazol-2-yl)-2-(4-methoxyphenyl)ethyl)-3-((R)-1-(4-chlorophenyl)ethyl)urea]
6.69	COc1ccc(C[C@@H](NC(=O)N[C@@H](C)c2ccc(OC)cc2)c2nc3ccccc3[nH]2)cc1 [Example 330, 1-((R)-1-(1H-Benzo[d]imidazol-2-yl)-2-(4-methoxyphenyl)ethyl)-3-((S)-1-(4-methoxyphenyl)ethyl)urea]
6.84	COc1ccc(C[C@@H](NC(=O)N[C@@H](C)c2ccc(Br)cc2)c2nc3ccccc3[nH]2)cc1 [Example 331, 1-((R)-1-(1H-Benzo[d]imidazol-2-yl)-2-(4-methoxyphenyl)ethyl)-3-((S)-1-(4-bromophenyl)ethyl)urea]
7.00	COc1ccc(C[C@@H](NC(=O)N[C@H](C)c2cccc(OC)c2)c2nc3ccccc3[nH]2)cc1 [Example 332, 1-((R)-1-(1H-Benzo[d]imidazol-2-yl)-2-(4-methoxyphenyl)ethyl)-3-((R)-1-(3-methoxyphenyl)ethyl)urea]
6.98	COc1ccc(C[C@@H](NC(=O)N[C@@H](C)c2ccc(C)cc2)c2nc3ccccc3[nH]2)cc1 [Example 333, 1-((R)-1-(1H-Benzo[d]imidazol-2-yl)-2-(4-methoxyphenyl)ethyl)-3-((S)-1-(p-tolyl)ethyl)urea]
6.61	COc1ccc(C[C@@H](NC(=O)N[C@H](C)c2ccc(OC)cc2)c2nc3ccccc3[nH]2)cc1 [Example 336, 1-((R)-1-(1H-Benzo[d]imidazol-2-yl)-2-(4-methoxyphenyl)ethyl)-3-((R)-1-(4-methoxyphenyl)ethyl)urea]
6.42	COC(=O)c1ccc([C@H](C)NC(=O)N[C@H](Cc2ccc(OC)cc2)c2nc3ccccc3[nH]2)cc1 [Example 337, Methyl 4-((S)-1-(3-((R)-1-(1H-benzo[d]imidazol-2-yl)-2-(4-methoxyphenyl)ethyl)ureido)ethyl)benzoate]
